Measured values taken from patent US9757415B2, “Composition comprising solanum glaucophyllum for preventing and/or treating hypocalcaemia and for stabilizing blood calcium levels” (HERBONIS AG, priority 2009, dated 2017).

Columns and labels:
cows = assay: In vivo experiment, single oral bolus in cows: serum calcium and phosphate
Source text: The control group only received pectin.

in vivo = details: female, brown, Fleckvieh and Holstein, cow, serum, po, 500 ng
Method: Twenty-five cows of the races brown, Fleckvieh and Holstein of a weight of approximately 500-600 kg weight and including lactating and non-lactating subjects were allocated to 5 treatment groups as detailed in Table 6 blow. The animals were given a single dose of the test preparation orally per bolus. Blood was taken at time 0 (before application) and at days 1, 2, 3, 4, 5, 7, 9 and 11 following application. From the blood, serum was prepared and calcium (total), phosphate and 1,25-(OH)2 vitamin D3 was analyzed according to established clinico-chemical methods.
Treatment: all test preparations were applied to the animal as one single bolus in a gelatine capsule (length 7 cm, diameter 2.2 cm and volume 24 mL, Capsula GmbH, Ratingen, Germany) with the aid of a usual bolus applicator. The volume that was not filled with tablets was filled up with pectin as inert excipient. The control group only received pectin.
The boluses contained, in accordance with the treatment group, instant release tablets as described in Example 3 (groups 2 and 4) and retard release tablets as prepared in Example 4 (groups 1 and 4).

[1] = day 0 (before application), n = 5, single oral bolus
[2] = day 2, n = 5, single oral bolus
[3] = day 3, n = 5, single oral bolus
[4] = day 4, n = 5, single oral bolus
[5] = day 5, n = 5, single oral bolus
[6] = day 7, n = 5, single oral bolus
[7] = day 9, n = 5, single oral bolus
[8] = day 11, n = 5, single oral bolus

SMILES: C=C1/C(=C\C=C2/CCC[C@]3(C)[C@@H]([C@H](C)CCCC(C)(C)O)CC[C@@H]23)C[C@@H](O)C[C@@H]1O [Group 3, 1,25-dihydroxyvitamin D3]
- Serum calcium (mean ± standard deviation) (cows; [1]): 2.40 ± 0.2 ^ mmol/L
- Serum phosphate (mean ± standard deviation) (cows; [1]): 2.30 ± 0.07 mmol/L
- Serum calcium (mean ± standard deviation) (cows; day 1, n = 5, single oral bolus): 2.64 ± 0.05 E mmol/L
- Serum calcium (mean ± standard deviation) (cows; [2]): 2.67 ± 0.09 Ed mmol/L
- Serum phosphate (mean ± standard deviation) (cows; [2]): 2.81 ± 0.25 ED mmol/L
- Serum calcium (mean ± standard deviation) (cows; [3]): 2.72 ± 0.09 E mmol/L
- Serum phosphate (mean ± standard deviation) (cows; [3]): 3.05 ± 0.19 Ed mmol/L
- Serum calcium (mean ± standard deviation) (cows; [4]): 2.72 ± 0.06 E mmol/L
- Serum phosphate (mean ± standard deviation) (cows; [4]): 3.24 ± 0.34 E mmol/L
- Serum calcium (mean ± standard deviation) (cows; [5]): 2.61 ± 0.02 E mmol/L
- Serum phosphate (mean ± standard deviation) (cows; [5]): 2.60 ± 0.32 E mmol/L
- Serum calcium (mean ± standard deviation) (cows; [6]): 2.57 ± 0.06 e^ mmol/L
- Serum phosphate (mean ± standard deviation) (cows; [6]): 2.43 ± 0.23 e mmol/L
- Serum calcium (mean ± standard deviation) (cows; [7]): 2.56 ± 0.09 ^ mmol/L
- Serum phosphate (mean ± standard deviation) (cows; [7]): 2.05 ± 0.44 mmol/L
- Serum calcium (mean ± standard deviation) (cows; [8]): 2.45 ± 0.02 ^ mmol/L
- Serum phosphate (mean ± standard deviation) (cows; [8]): 2.10 ± 0.16 mmol/L
- concentration at 0 day (in vivo): 0.02 ng/mL
- concentration at 1 day (in vivo): 0.243 ng/mL
- concentration at 2 day (in vivo): 0.15 ng/mL
- concentration at 3 day (in vivo): 0.056 ng/mL
- concentration at 4 day (in vivo): 0.04 ng/mL
- concentration at 5 day (in vivo): 0.046 ng/mL
- concentration at 7 day (in vivo): 0.03 ng/mL
- concentration at 9 day (in vivo): 0.023 ng/mL
- concentration at 11 day (in vivo): 0.025 ng/mL
